Measurements from ChEMBL document CHEMBL1158666, “Carmabins A and B, new lipopeptides from the Caribbean cyanobacterium Lyngbya majuscula” (J Nat Prod, 1998).
Calls of active or inactive are those of the source. The rule behind the calls is not given here. Square brackets hold non-standard residues; d marks the D form. Peptide text beside a SMILES is read from it. * marks the point of attachment. NMeY = CN[C@@H](Cc1ccc(O)cc1)C(=O)O; NMeF = CN[C@@H](Cc1ccccc1)C(=O)O; X2 = CC(=O)CCCCC(C)CC(C)C(=O)*; X1 = C#CCCCCC(C)CC(C)C(=O)*; NMeA = CN[C@@H](C)C(=O)O

System: NCI60
Experiment: Cytotoxicity against human NCI60 cells
Assay type: functional, cell-based

SMILES	Activity
C#CCCCCC(C)CC(C)C(=O)N(C)[C@@H](Cc1ccccc1)C(=O)N[C@@H](C)C(=O)N(C)[C@@H](C)C(=O)N(C)[C@@H](Cc1ccc(OC)cc1)C(N)=O (some centres not stated) (X1-[NMeF]A[NMeA][NMeY](Me)-NH2)	inactive
COc1ccc(C[C@@H](C(N)=O)N(C)C(=O)[C@H](C)N(C)C(=O)[C@H](C)NC(=O)[C@H](Cc2ccccc2)N(C)C(=O)C(C)CC(C)CCCCC(C)=O)cc1 (some centres not stated) (X2-[NMeF]A[NMeA][NMeY](Me)-NH2)	inactive
